Results reported in ChEMBL document CHEMBL1201862, “PubChem BioAssay data set” (2004).
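96-well plates; 48 h exposure; 5 concentrations. Endpoints by linear interpolation between flanking doses. Not reached: highest tested concentration assigned. At the GI50, growth is halved.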 Activity calls are given as the source filed them. Cut-off read from the data, not from the text of the source: active = GI50 up to about 1.1 µM and inactive = higher.

Key:
Assay in all cases: DTP human tumour cell line panel, 48 h
[1] = system: MCF7
[2] = system: OVCAR-8
[3] = system: SK-MEL-5
[4] = system: SK-MEL-2
[5] = system: CCRF-CEM
[6] = system: ACHN
[7] = system: IGROV-1
[8] = system: U-251
[9] = system: NCI-H460
[10] = system: RPMI-8226
[11] = system: RXF 393
[12] = system: HOP-62
[13] = system: SK-OV-3
[14] = system: COLO 205
[15] = system: A549
[16] = system: TK-10
[17] = system: T47D
[18] = system: SK-MEL-28
[19] = system: DU-145
[20] = system: HCT-15

With C[N+](C)(C)/N=C\c1ccc(O)c(O)c1 the GI50 [1] was > 100 µM (inactive), the GI50 [2] was > 100 µM (inactive) and the GI50 [3] was > 100 µM (inactive). For the same compound, the GI50 [4] was > 100 µM (inactive), the GI50 [5] was > 100 µM (inactive) and the GI50 [6] was > 100 µM (inactive). For the same compound, the GI50 [7] was > 100 µM (inactive), the GI50 [8] was > 100 µM (inactive) and the GI50 [9] was > 100 µM (inactive). For the same compound, the GI50 [10] was > 100 µM (inactive), the GI50 [11] was > 100 µM (inactive) and the GI50 [12] was > 100 µM (inactive). For the same compound, the GI50 [13] was > 100 µM (inactive), the GI50 [14] was > 100 µM (inactive) and the GI50 [15] was > 100 µM (inactive). The GI50 [16] was > 100 µM (inactive), the GI50 [17] was > 100 µM (inactive) and the GI50 [18] was > 59.4 µM (inactive). For the same compound, the GI50 [19] was > 100 µM (inactive) and the GI50 [20] was > 100 µM.

For NC(=S)N1N=C2c3ccccc3CCC[C@H]2[C@@H]1c1ccccc1, the GI50 [1] was 0.472 µM (active), the GI50 [2] was 3.2 µM (inactive) and the GI50 [3] was 0.664 µM (active). The GI50 [4] was 0.236 µM (active), the GI50 [5] was 0.528 µM (active) and the GI50 [6] was 5.07 µM (inactive). For the same compound, the GI50 [7] was 2.36 µM (inactive), the GI50 [8] was 2.33 µM (inactive) and the GI50 [9] was 1.07 µM (active). For the same compound, the GI50 [10] was 0.824 µM (active), the GI50 [11] was 1.7 µM (inactive) and the GI50 [12] was 2.2 µM (inactive). The GI50 [13] was 0.427 µM (active), the GI50 [14] was 1.67 µM (inactive) and the GI50 [15] was 1.52 µM (inactive). For the same compound, the GI50 [16] was 10.3 µM (inactive), the GI50 [17] was 10 µM (inactive) and the GI50 [18] was 10.5 µM (inactive). For the same compound, the GI50 [19] was 1.54 µM (inactive) and the GI50 [20] was 1.29 µM.

In the case of COc1cc(/C=N/N=C2NCCN2)ccc1O, the GI50 [1] is reported as > 100 µM (inactive), the GI50 [2] is reported as > 100 µM (inactive) and the GI50 [3] is reported as > 100 µM (inactive). For the same compound, the GI50 [4] was > 100 µM (inactive), the GI50 [5] was > 100 µM (inactive) and the GI50 [6] was > 100 µM (inactive). The GI50 [7] was > 100 µM (inactive), the GI50 [8] was > 100 µM (inactive) and the GI50 [9] was > 100 µM (inactive). For the same compound, the GI50 [10] was > 100 µM (inactive), the GI50 [11] was > 100 µM (inactive) and the GI50 [12] was > 100 µM (inactive). The GI50 [13] was > 100 µM (inactive), the GI50 [14] was > 100 µM (inactive) and the GI50 [15] was > 100 µM (inactive). For the same compound, the GI50 [16] was > 100 µM (inactive), the GI50 [17] was > 100 µM (inactive) and the GI50 [18] was > 100 µM (inactive). For the same compound, the GI50 [19] was > 100 µM (inactive) and the GI50 [20] was > 100 µM.

In the case of CCCC(=O)OC[n+]1cccc(-c2c(COC(=O)NC(C)C)c(COC(=O)NC(C)C)c3n2CCC3)c1, the GI50 [1] is reported as 40 µM (inactive), the GI50 [2] is reported as 55.7 µM (inactive) and the GI50 [3] is reported as 69.7 µM (inactive). The GI50 [4] was > 82.6 µM (inactive), the GI50 [5] was 9.98 µM (inactive) and the GI50 [6] was 30.7 µM (inactive). The GI50 [7] was > 46.3 µM (inactive), the GI50 [8] was > 60.7 µM (inactive) and the GI50 [9] was 29.6 µM (inactive). For the same compound, the GI50 [10] was 32.3 µM (inactive), the GI50 [11] was 23.1 µM (inactive) and the GI50 [12] was 49.8 µM (inactive). For the same compound, the GI50 [13] was > 100 µM (inactive), the GI50 [14] was 73.3 µM (inactive) and the GI50 [15] was 89.5 µM (inactive). For the same compound, the GI50 [16] was > 72.4 µM (inactive), the GI50 [17] was > 91.8 µM (inactive) and the GI50 [18] was > 100 µM (inactive). The GI50 [19] was 43.2 µM (inactive) and the GI50 [20] was > 93.3 µM.

With O=C1CC(NCCCNC2CC(=O)c3c(Br)sc(Br)c32)c2c(Br)sc(Br)c21 (stereo not given) the GI50 [1] was 0.369 µM (active), the GI50 [2] was 1.66 µM (inactive) and the GI50 [3] was 2.04 µM (inactive). The GI50 [4] was 1.87 µM (inactive), the GI50 [5] was 0.238 µM (active) and the GI50 [6] was 1.8 µM (inactive). For the same compound, the GI50 [7] was 1.71 µM (inactive), the GI50 [8] was 1.82 µM (inactive) and the GI50 [9] was 3.62 µM (inactive). For the same compound, the GI50 [10] was 0.118 µM (active), the GI50 [11] was 1.69 µM (inactive) and the GI50 [12] was 2.84 µM (inactive). For the same compound, the GI50 [13] was 4.1 µM (inactive), the GI50 [14] was 2.22 µM (inactive) and the GI50 [15] was 2.69 µM (inactive). For the same compound, the GI50 [16] was 2.06 µM (inactive), the GI50 [17] was 2.11 µM (inactive) and the GI50 [18] was 3.15 µM (inactive). For the same compound, the GI50 [19] was 1.66 µM (inactive) and the GI50 [20] was 1.71 µM.

O=C1c2cc3c(cc2NC(c2ccccc2F)C1O)OCO3 (stereo not given) was tested, and the GI50 [1] was 5.27 µM (inactive), the GI50 [2] was 28.2 µM (inactive) and the GI50 [3] was 4.86 µM (inactive). For the same compound, the GI50 [4] was 24.3 µM (inactive), the GI50 [5] was 14 µM (inactive) and the GI50 [6] was 31.9 µM (inactive). The GI50 [7] was 13.5 µM (inactive), the GI50 [8] was 14.9 µM (inactive) and the GI50 [9] was 9.46 µM (inactive). For the same compound, the GI50 [10] was 30.5 µM (inactive), the GI50 [11] was 22.4 µM (inactive) and the GI50 [12] was 22.7 µM (inactive). For the same compound, the GI50 [13] was 17.7 µM (inactive), the GI50 [14] was 5.3 µM (inactive) and the GI50 [15] was 11.7 µM (inactive). The GI50 [16] was 21 µM (inactive), the GI50 [17] was > 59.6 µM (inactive) and the GI50 [18] was 18.5 µM (inactive). For the same compound, the GI50 [19] was 35 µM (inactive) and the GI50 [20] was 5.45 µM.
